Legend:
[1] = test system: lower urinary tract obstruction model of rats (female); experiment: Test Example 1: urination function in lower urinary tract obstruction model of female rats; type: in vivo; conditions: oral once a day 2 weeks, Compound A 10 mg/kg
Text: A lower urinary tract obstruction model of rats was used as a test system. A test substance was orally administered to the lower urinary tract obstruction model repeatedly over two (2) weeks to examine the action on the urination function in the lower urinary tract obstruction model.
More specifically, the rats (female, Crl:CD(SD), 8-week-old; Charles River Laboratories Japan, Inc.) were operated to form lower urinary tract obstruction and repeatedly received oral administration of the test substance at a frequency of once a day over two (2) weeks. After the completion of the administration, each rat was subjected to bladder catheterization under anesthesia, cystometry under no anesthesia, then cystometry under urethane anesthesia, and euthanasia under deep anesthesia, and the tissues (bladder, kidney) of the rat were extracted or surgically removed. As a normal group, the rats without operation for forming lower urinary tract obstruction were used.
The test system, the test substances, and the dosage are as follows. • Normal group: 0.5 v/v % Polysorbate 80 solution, 10 mL/kg (n=6) • Solvent group (control group): 0.5 v/v % Polysorbate 80 solution, 10 mL/kg (n=15) • Group A: Compound A, 10 mg/kg (n=15) • Group B3: Compound B, 3 mg/kg (n=7) • Group B10: Compound B, 10 mg/kg (n=7)
After urination, the residual urine was aspirated from the outlet end of the catheter placed in the bladder to measure the volume (mL) of the residual urine.
After urination, the weight of the voided urine was measured to determine the voided volume (g=mL), and then the urination efficiency was calculated by the following equation: Urination efficiency (%)=[(Voided volume (mL))/(Voided volume (mL)+Residual urine volume (mL))]×100
Bladder capacity (mL)=Voided volume (mL)+Residual urine volume (mL)
Moreover, the wet weight of the extracted bladder and that of the extracted kidney were measured.

ovariectomized rats = experiment: Test Example 5: antiprogesterone activity, uterine weight associated with rat deciduoma formation; type: in vivo
Method: For the compound A and the compound D (mifepristone), the antiprogesterone activity was measured. Specifically, a sex hormone and a test substance were repeatedly administered to ovariectomized rats as a test system to examine the antiprogesterone action (antiprogesterone activity) based on, as an index, the fluctuation of the uterine weight (the inhibitory action relative to the increase of the weight) associated with rat deciduoma formation.
More specifically, rats (female, Crl:CD(SD), 5-week-old: Charles River Laboratories Japan, Inc.) were subjected to ovariectomy, and from one (1) week after the ovariectomy, a high dose estrone of 5 μg/one animal was hypodermically administered to the rats once a day for three (3) days. From the day after one day rest period, the rats received, once a day over eight (8) days, hypodermic administration of a low dose estrone (1 μg/one animal), intramuscular administration of progesterone (6 mg/kg), and oral administration of a test substance. In the middle of the administration, on Day 4 of the start of administration, the rats were subjected to a stimulation treatment of decidualization reaction to the right uterus. The day after the final administration, the uterine weight (right uterine body) was measured (n=6). Group E was subjected to ovariectomy and a stimulation treatment of decidualization reaction but was not subjected to a hormone treatment.
Group E: rats with ovariectomy without hormone treatment 0.5 v/v % Polysorbate 80 solution, 10 mL/kg (n=6) • Solvent group (control group): 0.5 v/v % Polysorbate 80 solution, 10 mL/kg (n=6) • Group A3: Compound A, 3 mg/kg (n=6) • Group A10: Compound A, 10 mg/kg (n=6) • Group A30: Compound A, 30 mg/kg (n=6) • Group D: Compound D (mifepristone), 3 mg/kg (n=6)

[2] = female rats, lower urinary tract obstruction, vs control group

CC(=O)O[C@]1(C(C)=O)C[C@@H](O)[C@H]2[C@@H]3C=C(Cl)C4=CC(=O)OC[C@]4(C)[C@H]3CC[C@@]21C [Compound A, 17α-acetoxy-6-chloro-15β-hydroxy-2-oxa-4,6-pregnadiene-3,20-dione]
survival rate ([1]; female lower urinary tract obstruction rats): no decrease | wet weights of the bladder and the kidney ([1]; female rats, lower urinary tract obstruction): in the direction of significantly inhibiting the increase | residual urine volume ([1]; female rats, lower urinary tract obstruction, vs control (solvent) group): significantly decreased | bladder capacity [1, 2]: significantly decreased | urination efficiency [1, 2]: increased | inhibition at 3 mg/kg (ovariectomized rats; Rattus norvegicus, 192 h, ovariectomized rats, estrone + progesterone, oral 3 mg/kg once a day 8 days, compared with the solvent group, read-out: inhibition rate (increase of uterine weight, deciduoma formation)): 15% | inhibition at 10 mg/kg (ovariectomized rats; Rattus norvegicus, 192 h, ovariectomized rats, estrone + progesterone, oral 10 mg/kg once a day 8 days, compared with the solvent group, read-out: inhibition rate (increase of uterine weight, deciduoma formation)): 63% | inhibition at 30 mg/kg (ovariectomized rats; Rattus norvegicus, 192 h, ovariectomized rats, estrone + progesterone, oral 30 mg/kg once a day 8 days, compared with the solvent group, read-out: inhibition rate (increase of uterine weight, deciduoma formation)): 83.3% | antiprogesterone activity (ovariectomized rats; ovariectomized rats, 3, 10, 30 mg/kg oral): has an antiprogesterone activity
